Laboratory results from patent US6071709A, “Nerve growth factor/receptor complex” (The United States of America as represented by the …, priority 1992, dated 2000).

System: p140^prototrk
Experiment: Affinity crosslinking of 125I-NGF to gp140trk with HSAB and immunoprecipitation
Format: binding, rat
Conditions: 0.5 nM 125I-NGF, 2 hr at 4° C., PC12 and rtrk-3T3 cells
From the text: FIG. 5 depicts the affinity crosslinking of NGF to gp140trk on PC12 cells and rtrk 3T3 cells. trk receptors were labeled by cross-linking of ^125 I-NGF to cultured cells using HSAB. The cell lines analyzed were PC12 cells (lanes 1-4), rtrk 3T3 cells (lanes 5-9), NIH-3T3 cells (lanes 10-11) and A875 human […] cells (lanes 13-15). Lysates from cells were immunoprecipitated with anti-NGF (lanes 1, 5, 9-14), gp140trk antibody 7-4 which is another trk antibody generated in bacteria against the gp70trk oncogene (7-4), (Martin-Zanca et al., (1989)) (lanes 2 and 6), or gp140trk antibody 43-4 in the absence (lanes […] and 15) or presence (lanes 4 and 8) of 10 μg/ml competing trk peptide. Crosslinking was performed in the presence of excess unlabeled NGF ([…]) in lanes 9, 11, and 14. The antibody 7-4 immunoprecipitates 3-5 fold less gp140 trk than does antibody 43-4. […]
^125 I-NGF was prepared by lactoperoxidase treatment to specific activities of 2500-3500 cpm/fmole. […] After washing in 50 mM lysine in phosphate buffered saline, cells were lysed in buffer containing 1% NP40 and the lysates immunoprecipitated and analyzed on 7.5% SDS-PAGE as described (Kaplan et al., (1990)).
To determine if NGF was capable of binding to p140^prototrk, several cell lines were analyzed for the ability of trk-specific antisera to precipitate receptor-ligand complexes in affinity crosslinking experiments (FIG. 5). […]

Chain of p140^prototrk (P35739 148-395 limits assumed): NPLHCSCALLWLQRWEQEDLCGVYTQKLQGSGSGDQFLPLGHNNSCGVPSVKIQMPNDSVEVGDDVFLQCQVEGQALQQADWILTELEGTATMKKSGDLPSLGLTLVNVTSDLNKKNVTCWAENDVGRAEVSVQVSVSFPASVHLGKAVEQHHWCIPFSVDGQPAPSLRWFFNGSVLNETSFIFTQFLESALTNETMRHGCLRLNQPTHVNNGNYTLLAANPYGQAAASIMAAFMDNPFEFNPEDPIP

NGF: neurotrophic polypeptide factor, nerve growth factor; ligand of trk proto-oncogene receptor
binding to p140^prototrk (160 kDa crosslinked species): binds
